Experimental data from PubChem BioAssay AID1963968 (Molecular Pharmacology Branch, DTP, NCI, 2024).
pIC50: −log10 of the molar value.

System: 945468-187-T-J3-PDC spheroids with HUVEC/MSC, viability
Experiment: Anticancer human tumor 945468-187-T-J3-PDC patient-derived rectal carcinoma cell line growth inhibition [PI3K]
Conditions: for pIC50: curve of first compound; for viability, T/C: stronger effect = lower value
Summary of the method: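 Viability of mixed-cell spheroids was determined after exposure to pairwise combinations, one partner being inavolisib, alpelisib, duvelisib or copanlisib. Highest tested concentration matched clinical Cmax where known and 10 microM where not, descending in half-log steps.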

[1] = second compound 0.0316 µM, first compound 0.0316 µM
[2] = second compound 0.0316 µM, first compound 0.1 µM
[3] = second compound 0.1 µM, first compound 0.0316 µM
[4] = second compound 0.1 µM, first compound 0.1 µM
[5] = second compound 0.316 µM, first compound 0.0316 µM
[6] = second compound 0.316 µM, first compound 0.1 µM
[7] = second compound 1 µM, first compound 0.0316 µM
[8] = second compound 1 µM, first compound 0.1 µM
[9] = second compound 3.16 µM, first compound 0.0316 µM
[10] = second compound 3.16 µM, first compound 0.1 µM
[11] = second compound 10 µM, first compound 0.0316 µM
[12] = second compound 10 µM, first compound 0.1 µM
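Note: spheroids exposed to agents for 7 days before viability read.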
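Throughout, for viability, T/C: 100% = DMSO vehicle control viability.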

**Q.** How did the pIC50 (second compound 0.0316 µM) turn out when `CC(=O)c1c(C)c2cnc(Nc3ccc(N4CCNCC4)cn3)nc2n(C2CCCC2)c1=O` + Cc1nc(NC(=O)N2CCCC2C(N)=O)sc1-c1ccnc(C(C)(C)C(F)(F)F)c1 was run?
**A.** < 7.00

**Q.** And the pIC50 (second compound 0.1 µM)?
**A.** < 7.00

**Q.** And the pIC50 (second compound 0.316 µM)?
**A.** < 7.00

**Q.** And the pIC50 (second compound 1 µM)?
**A.** < 7.00

**Q.** What about the pIC50 (second compound 3.16 µM) of the same molecule?
**A.** < 7.00

**Q.** What about the pIC50 (second compound 10 µM) of the same molecule?
**A.** 7.91

**Q.** And the viability, T/C (second compound 0.0316 µM, first compound 0.000316 µM)?
**A.** 98.8%

**Q.** And the viability, T/C (second compound 0.0316 µM, first compound 0.001 µM)?
**A.** 100%

**Q.** And the viability, T/C (second compound 0.0316 µM, first compound 0.00316 µM)?
**A.** 90.7%

**Q.** And the viability, T/C (second compound 0.0316 µM, first compound 0.01 µM)?
**A.** 107%

**Q.** And the viability, T/C [1]?
**A.** 97.5%

**Q.** And the viability, T/C [2]?
**A.** 104%

**Q.** And the viability, T/C (second compound 0.1 µM, first compound 0.000316 µM)?
**A.** 91.5%

**Q.** And the viability, T/C (second compound 0.1 µM, first compound 0.001 µM)?
**A.** 107%

**Q.** And the viability, T/C (second compound 0.1 µM, first compound 0.00316 µM)?
**A.** 85.5%

**Q.** What about the viability, T/C (second compound 0.1 µM, first compound 0.01 µM) of the same molecule?
**A.** 91%

**Q.** And the viability, T/C [3]?
**A.** 100%

**Q.** And the viability, T/C [4]?
**A.** 102%

**Q.** And the viability, T/C (second compound 0.316 µM, first compound 0.000316 µM)?
**A.** 103%

**Q.** And the viability, T/C (second compound 0.316 µM, first compound 0.001 µM)?
**A.** 101%

**Q.** What about the viability, T/C (second compound 0.316 µM, first compound 0.00316 µM) of the same molecule?
**A.** 103%

**Q.** What about the viability, T/C (second compound 0.316 µM, first compound 0.01 µM) of the same molecule?
**A.** 97.9%

**Q.** What about the viability, T/C [5] of the same molecule?
**A.** 99.8%

**Q.** And the viability, T/C [6]?
**A.** 94.3%

**Q.** What about the viability, T/C (second compound 1 µM, first compound 0.000316 µM) of the same molecule?
**A.** 111%

**Q.** What about the viability, T/C (second compound 1 µM, first compound 0.001 µM) of the same molecule?
**A.** 103%

**Q.** What about the viability, T/C (second compound 1 µM, first compound 0.00316 µM) of the same molecule?
**A.** 100%

**Q.** What about the viability, T/C (second compound 1 µM, first compound 0.01 µM) of the same molecule?
**A.** 97.6%

**Q.** What about the viability, T/C [7] of the same molecule?
**A.** 101%

**Q.** And the viability, T/C [8]?
**A.** 102%

**Q.** What about the viability, T/C (second compound 3.16 µM, first compound 0.000316 µM) of the same molecule?
**A.** 106%

**Q.** What about the viability, T/C (second compound 3.16 µM, first compound 0.001 µM) of the same molecule?
**A.** 93.2%

**Q.** What about the viability, T/C (second compound 3.16 µM, first compound 0.00316 µM) of the same molecule?
**A.** 90.5%

**Q.** And the viability, T/C (second compound 3.16 µM, first compound 0.01 µM)?
**A.** 90.7%

**Q.** And the viability, T/C [9]?
**A.** 90.7%

**Q.** What about the viability, T/C [10] of the same molecule?
**A.** 76.2%

**Q.** And the viability, T/C (second compound 10 µM, first compound 0.000316 µM)?
**A.** 57.6%

**Q.** What about the viability, T/C (second compound 10 µM, first compound 0.001 µM) of the same molecule?
**A.** 56%

**Q.** And the viability, T/C (second compound 10 µM, first compound 0.00316 µM)?
**A.** 55.1%

**Q.** What about the viability, T/C (second compound 10 µM, first compound 0.01 µM) of the same molecule?
**A.** 49.3%

**Q.** What about the viability, T/C [11] of the same molecule?
**A.** 46%

**Q.** And the viability, T/C [12]?
**A.** 31.3%

**Q.** How did the pIC50 (second compound 0.0316 µM) turn out when `CNC(=O)c1ccc(N2C(=S)N(c3ccc(C#N)c(C(F)(F)F)c3)C(=O)C2(C)C)cc1F` + Cc1nc(NC(=O)N2CCCC2C(N)=O)sc1-c1ccnc(C(C)(C)C(F)(F)F)c1 was run?
**A.** < 5.00

**Q.** And the pIC50 (second compound 0.1 µM)?
**A.** < 5.00

**Q.** And the pIC50 (second compound 0.316 µM)?
**A.** < 5.00

**Q.** What about the pIC50 (second compound 1 µM) of the same molecule?
**A.** < 5.00

**Q.** And the pIC50 (second compound 3.16 µM)?
**A.** < 5.00

**Q.** What about the pIC50 (second compound 10 µM) of the same molecule?
**A.** < 5.00

**Q.** And the viability, T/C [1]?
**A.** 102%

**Q.** And the viability, T/C [2]?
**A.** 108%

**Q.** What about the viability, T/C (second compound 0.0316 µM, first compound 0.316 µM) of the same molecule?
**A.** 96.1%

**Q.** And the viability, T/C (second compound 0.0316 µM, first compound 1 µM)?
**A.** 115%

**Q.** What about the viability, T/C (second compound 0.0316 µM, first compound 3.16 µM) of the same molecule?
**A.** 107%

**Q.** And the viability, T/C (second compound 0.0316 µM, first compound 10 µM)?
**A.** 104%

**Q.** And the viability, T/C [3]?
**A.** 108%

**Q.** What about the viability, T/C [4] of the same molecule?
**A.** 106%

**Q.** What about the viability, T/C (second compound 0.1 µM, first compound 0.316 µM) of the same molecule?
**A.** 99.7%

**Q.** What about the viability, T/C (second compound 0.1 µM, first compound 1 µM) of the same molecule?
**A.** 105%

**Q.** And the viability, T/C (second compound 0.1 µM, first compound 3.16 µM)?
**A.** 116%

**Q.** And the viability, T/C (second compound 0.1 µM, first compound 10 µM)?
**A.** 94.8%

**Q.** What about the viability, T/C [5] of the same molecule?
**A.** 125%

**Q.** And the viability, T/C [6]?
**A.** 108%

**Q.** And the viability, T/C (second compound 0.316 µM, first compound 0.316 µM)?
**A.** 97%

**Q.** And the viability, T/C (second compound 0.316 µM, first compound 1 µM)?
**A.** 105%

**Q.** And the viability, T/C (second compound 0.316 µM, first compound 3.16 µM)?
**A.** 116%

**Q.** And the viability, T/C (second compound 0.316 µM, first compound 10 µM)?
**A.** 108%

**Q.** What about the viability, T/C [7] of the same molecule?
**A.** 120%

**Q.** What about the viability, T/C [8] of the same molecule?
**A.** 115%

**Q.** And the viability, T/C (second compound 1 µM, first compound 0.316 µM)?
**A.** 97.6%

**Q.** And the viability, T/C (second compound 1 µM, first compound 1 µM)?
**A.** 118%

**Q.** What about the viability, T/C (second compound 1 µM, first compound 3.16 µM) of the same molecule?
**A.** 105%

**Q.** What about the viability, T/C (second compound 1 µM, first compound 10 µM) of the same molecule?
**A.** 108%

**Q.** What about the viability, T/C [9] of the same molecule?
**A.** 123%

**Q.** What about the viability, T/C [10] of the same molecule?
**A.** 110%

**Q.** And the viability, T/C (second compound 3.16 µM, first compound 0.316 µM)?
**A.** 101%

**Q.** And the viability, T/C (second compound 3.16 µM, first compound 1 µM)?
**A.** 112%

**Q.** And the viability, T/C (second compound 3.16 µM, first compound 3.16 µM)?
**A.** 108%

**Q.** What about the viability, T/C (second compound 3.16 µM, first compound 10 µM) of the same molecule?
**A.** 121%

**Q.** And the viability, T/C [11]?
**A.** 61.1%

**Q.** What about the viability, T/C [12] of the same molecule?
**A.** 68.6%

**Q.** What about the viability, T/C (second compound 10 µM, first compound 0.316 µM) of the same molecule?
**A.** 59.5%

**Q.** What about the viability, T/C (second compound 10 µM, first compound 1 µM) of the same molecule?
**A.** 61.2%

**Q.** And the viability, T/C (second compound 10 µM, first compound 3.16 µM)?
**A.** 67.9%

**Q.** And the viability, T/C (second compound 10 µM, first compound 10 µM)?
**A.** 88.5%

**Q.** What does the source list for `Cn1cnc2c(F)c(Nc3ccc(Br)cc3Cl)c(C(=O)NOCCO)cc21` + Cc1nc(NC(=O)N2CCCC2C(N)=O)sc1-c1ccnc(C(C)(C)C(F)(F)F)c1?
**A.** pIC50 (second compound 0.0316 µM): < 5.52; pIC50 (second compound 0.1 µM): < 5.52; pIC50 (second compound 0.316 µM): < 5.52; pIC50 (second compound 1 µM): 5.93; pIC50 (second compound 3.16 µM): 6.54; pIC50 (second compound 10 µM): 7.68; viability, T/C (second compound 0.0316 µM, first compound 0.00949 µM): 111%; viability, T/C (second compound 0.0316 µM, first compound 0.03 µM): 124%; viability, T/C (second compound 0.0316 µM, first compound 0.0949 µM): 129%; viability, T/C (second compound 0.0316 µM, first compound 0.3 µM): 120%; viability, T/C (second compound 0.0316 µM, first compound 0.949 µM): 123%; viability, T/C (second compound 0.0316 µM, first compound 3 µM): 107%; viability, T/C (second compound 0.1 µM, first compound 0.00949 µM): 113%; viability, T/C (second compound 0.1 µM, first compound 0.03 µM): 109%; viability, T/C (second compound 0.1 µM, first compound 0.0949 µM): 114%; viability, T/C (second compound 0.1 µM, first compound 0.3 µM): 122%; viability, T/C (second compound 0.1 µM, first compound 0.949 µM): 114%; viability, T/C (second compound 0.1 µM, first compound 3 µM): 90.4%; viability, T/C (second compound 0.316 µM, first compound 0.00949 µM): 114%; viability, T/C (second compound 0.316 µM, first compound 0.03 µM): 123%; viability, T/C (second compound 0.316 µM, first compound 0.0949 µM): 116%; viability, T/C (second compound 0.316 µM, first compound 0.3 µM): 123%; viability, T/C (second compound 0.316 µM, first compound 0.949 µM): 94.1%; viability, T/C (second compound 0.316 µM, first compound 3 µM): 60.4%; viability, T/C (second compound 1 µM, first compound 0.00949 µM): 117%; viability, T/C (second compound 1 µM, first compound 0.03 µM): 125%; viability, T/C (second compound 1 µM, first compound 0.0949 µM): 100%; viability, T/C (second compound 1 µM, first compound 0.3 µM): 101%; viability, T/C (second compound 1 µM, first compound 0.949 µM): 51.8%; viability, T/C (second compound 1 µM, first compound 3 µM): 34.2%; viability, T/C (second compound 3.16 µM, first compound 0.00949 µM): 105%; viability, T/C (second compound 3.16 µM, first compound 0.03 µM): 87%; viability, T/C (second compound 3.16 µM, first compound 0.0949 µM): 61.6%; viability, T/C (second compound 3.16 µM, first compound 0.3 µM): 55.7%; viability, T/C (second compound 3.16 µM, first compound 0.949 µM): 30%; viability, T/C (second compound 3.16 µM, first compound 3 µM): 20.2%; viability, T/C (second compound 10 µM, first compound 0.00949 µM): 56.9%; viability, T/C (second compound 10 µM, first compound 0.03 µM): 46.5%; viability, T/C (second compound 10 µM, first compound 0.0949 µM): 34.3%; viability, T/C (second compound 10 µM, first compound 0.3 µM): 20.6%; viability, T/C (second compound 10 µM, first compound 0.949 µM): 10.7%; viability, T/C (second compound 10 µM, first compound 3 µM): 4.74%
